Read-outs that look alike come from different tables or passages of the source. Marks after values point to notes of the source that are not given here.
Assays:
[1] = target: T1, human MMP-9 (gelatinase B) (Homo sapiens, UniProt P14780); assay: Inhibition activity against human MMP-9 (gelatinase B), fluorescent peptide substrate; type: biochemical; settings: compounds of the formula (I)
T1 construct: endogenous in cells; host or cells: HT1080 human fibrosarcoma cells (ATCC CCL-121), PMA-stimulated; enzyme purified from the culture supernatant
Method in brief: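 MMP-9 purified from PMA-stimulated (10 ng/ml) HT1080 supernatant, or commercial enzyme (0.0125-0.025 unit/ml or 0.2 μg/ml final), incubated with compound and 10 μM final Mca-Pro-Leu-Gly-Leu-Dpa-Ala-Arg-NH2 fluorescent substrate at 37 °C for 3 h in the dark. Precursor enzyme activated with APMA.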

[2] = test system: Meth A/AD cells (mouse fibrosarcoma); type: in vivo; parameters: Tumor volume (Day 22) Average ± standard deviation / Tumor growth inhibition ratio (%) / Tumor volume (Day 24) Average ± standard deviation: dose or concentration left out as unconfirmed; settings: for inhibition ratio of tumor growth of Meth A/AD: intraperitoneal administration, total of 10 times, male BALB/c mouse, tumor volume vs vehicle control
Method: Meth A mouse fibrosarcoma cells intraperitoneally subcultured in mouse (supplied from Sasaki Institute) were cultured at 39° C. for 10 days in 5% CO2 (using 10% fetal bovine serum-containing RPMI culture medium (manufactured by Flow Laboratories)) and then inoculated subcutaneously to BALB/c mouse. The tumor grown for 30 days, was taken out and passed through a metal mesh to obtain single cells, which were again returned and continuously cultured in vitro (37° C.). […] On the other hand, the Meth A/AD strain always produces and secretes MMP-2 in the supernatant in in vitro culture, but when TNF-α (50 ng/ml) was added in the culture solution, it produced MMP-9 remarkably.
With reference to the method by Keneda et al (Cancer Research, Vol. 58, 290-295, 1998), the inhibitory effect on tumor growth were evaluated. Namely, 1×10^6 Meth A/AD cells cultured in vitro (suspended in 0.05 ml of a Hanks equilibrium salt solution) were intradermaly transplanted to the dosal skin of a male BALB/c AnNCrj mouse of 5 weeks old (purchased from Charles River Japan, Inc.) (Day 0). […] Compound No. 107 was suspended in a 1% Tween 80 physiological sodium chloride aqueous solution, and Compound No. 164 was dissolved in 100 mM Tris-HCl (pH 8.5)/150 mM NaCl, for administration. To the vehicle control group, the respective solvents containing no test materials were administered in the same manner. The measurement of the body weight and the observation of the general findings were carried out everyday up to Day 22 or 24, and the tumor diameters (the long diameter and the short diameter) were measured by a slide gauge every one day, and the difference in the tumor volume between the vehicle control group and the drug-treated group was evaluated. The tumor volume was calculated in accordance with the calculation formula of [(long diameter)×(short diameter)^2×½].

[3] = 1st measurement, read-out: MMP-9 inhibition activities IC50, 1st
[4] = 2nd measurement, read-out: MMP-9 inhibition activities IC50, 2nd
[5] = average of 1st and 2nd (or single measurement), read-out: MMP-9 inhibition activities IC50, Average

T1 sequence (P14780 107-707 limits assumed): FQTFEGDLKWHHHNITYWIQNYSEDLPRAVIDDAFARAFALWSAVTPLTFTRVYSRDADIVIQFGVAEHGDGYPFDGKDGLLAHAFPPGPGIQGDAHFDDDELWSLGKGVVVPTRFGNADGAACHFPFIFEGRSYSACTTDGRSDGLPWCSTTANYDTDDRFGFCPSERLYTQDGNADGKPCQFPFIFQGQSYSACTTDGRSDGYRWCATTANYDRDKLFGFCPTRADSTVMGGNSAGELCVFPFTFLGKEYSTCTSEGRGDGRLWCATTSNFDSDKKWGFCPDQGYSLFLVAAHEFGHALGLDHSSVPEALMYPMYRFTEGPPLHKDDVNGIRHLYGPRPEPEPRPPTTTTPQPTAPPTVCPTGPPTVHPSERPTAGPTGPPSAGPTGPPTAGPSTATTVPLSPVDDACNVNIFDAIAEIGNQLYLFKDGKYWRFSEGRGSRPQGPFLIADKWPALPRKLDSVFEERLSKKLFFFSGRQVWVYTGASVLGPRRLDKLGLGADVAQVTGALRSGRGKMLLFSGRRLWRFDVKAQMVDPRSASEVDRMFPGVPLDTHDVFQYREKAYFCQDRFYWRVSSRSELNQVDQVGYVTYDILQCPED

Compound `CS(=O)(=O)NC(=C[N+](=O)[O-])NNc1cc(C(F)(F)F)cc(Cl)n1` [Compound No. 157, N-(1-(6-chloro-4-trifluoromethyl-2-pyridyl)hydrazino-2-nitroethenyl)methanesulfonamide] has an IC50 [1, 3] of 7.4 µM, an IC50 [1, 4] of 5.5 µM and an IC50 [1, 5] of 6.5 µM.
`CCOCCOc1cc(C(F)(F)F)cc(NNC(=C[N+](=O)[O-])NC)n1` [Compound No. 107] was tested, and the IC50 [1, 3] was 8 µM, the IC50 [1, 4] was 7.4 µM and the IC50 [1, 5] was 7.7 µM. The “inhibition ratio of tumor growth of Meth A/AD” value ([2]; 100 mg/kg) was 63.5%, the “Tumor growth inhibition ratio (%)” value ([2]; intraperitoneal, Day 22) was 63.5* % and the “Tumor volume (Day 22) Average ± standard deviation” value ([2]; intraperitoneal, Day 22, vehicle control 1058 ± 556) was 386 ± 275* mm^3.
Compound `CCOCCOc1cc(C(F)(F)F)cc(NNC(=C[N+](=O)[O-])NS(C)(=O)=O)n1` [Compound No. 164, N-(1-(6-(2-ethoxyethoxy)-4-trifluoromethyl-2-pyridyl)hydrazino-2-nitroethenyl)methanesulfonamide] has an IC50 [1, 3] of 5.4 µM, an IC50 [1, 4] of 5.9 µM and an IC50 [1, 5] of 5.7 µM. The “inhibition ratio of tumor growth of Meth A/AD” value ([2]; 30 mg/kg) was 49.8%, the “Tumor growth inhibition ratio (%)” value ([2]; intraperitoneal, Day 24) was 49.8* % and the “Tumor volume (Day 24) Average ± standard deviation” value ([2]; intraperitoneal, Day 24, vehicle control 2045 ± 987) was 1027 ± 907* mm^3.

— patent publication US6596863B2, “Medical composition containing nitroetheneamine Derivative or salt there of as active constituent” (Ishihara Sangyo Kaisha, Ltd., priority 1998, dated 2003)
